{"source": "patent US10308682B2", "about": "“Inhibition of tumor growth with aggregates of small molecules” (BRANDEIS UNIVERSITY, priority 2013, dated 2019)", "key": {"[1]": {"system": "U87MG", "assay": "Cell viability assay (MTT), U87MG", "type": "cell-based", "protocol": "Cells in exponential growth phase were seeded in a 96 well plate at a concentration of 50,000 cell/well. The cells were allowed to attach to the wells for 24 h at 37° C., 5% CO2, then the culture medium was removed and 100 μL new culture medium containing 1 at gradient concentrations was placed into each well. After culturing at 37° C., 5% CO2 for desired time, each well was added by 10 μL of 5 mg/mL MTT 43-(4,5-Dimethylthiazol-2-yl)-2,5-diphenyltetrazolium bromide), and the plated cells were incubate at dark for 4 h. 100 μL 10% SDS with 0.01 M HCl was added to each well to stop the reduction reaction and to dissolve the purple. After incubation of the cells at 37° C. for overnight, the viability is measured. Data represent the mean±standard deviation of three independent experiments.\nThe estimation of the threshold concentration of aggregation (320-340 μM) for 1 allows us to examine the cytotoxicity of 1 in monomer and molecular aggregate forms. We first tested the cytotoxicity of 1 towards HeLa cells, the most widely studied cancer cell line, below and above the threshold concentration."}, "[2]": {"system": "T98G cells", "assay": "Tubulin staining (tubulin tracker), T98G cells", "type": "cell-based", "settings": "400 μM, 24 h"}}}
{"smiles": "O=C(Cc1ccc2ccccc2c1)N[C@@H](Cc1ccccc1)C(=O)N[C@@H](Cc1ccccc1)C(=O)O", "note": "[Compound 1]", "values": [{"measurement": "cytotoxicity towards U87MG", "setting": "[1]", "value": "decreases of cell viabilities only observed at 400 and 500 μM"}, {"measurement": "microtubule morphology", "setting": "[2]", "value": "disrupted microtubule network"}]}
